The subject of this experiment is Hs578T complex spheroid growth, percent test/control. Kind of experiment: Anticancer human tumor Hs578T cell line growth inhibition [AhR].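 For all read-outs here: luminescent viability signal as a proxy for spheroid growth; spheroids exposed to agents for one week after three days of growth.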 Conditions: for viability, T/C: stronger effect = lower value; for pIC50: curve of compound. An excerpt:
Multicellular complex tumor spheroid response to aryl hydrocarbon receptor antagonists in combination with a variety of drugs and investigational agents in selected tumor cell lines
The current study was undertaken to assess response to aryl hydrocarbon receptor antagonists in combination with standard-of-care drugs and investigational agents in solid tumor complex spheroid models. Complex spheroids include a stromal component modeled by human endothelial cells (HUVEC) and fibroblasts modeled by human mesenchymal stem cells (MSCs). The concentration ranges selected for each drug and investigational agent were based upon clinically achievable concentrations if the clinical Cmax of the agent was known.
Compounds. The drugs and investigational agents: BAY 2416964 (NSC825713), GNF351 (NSC835774), CH-223191 (NSC835775), CPI-455 (NSC825282), aza-TdCyd (NSC777586), decitabine (NSC127716), belinostat (NSC758774), entinostat (NSC756642), pevonedistat (NSC761192), tazemetostat (NSC777109), talazoparib (NSC765396), olaparib (NSC753686), selinexor (NSC780203), nedisertib (M3814, NSC802822), bortezomib (NSC756655), venetoclax (NSC766270), doxorubicin (NSC123127), elimusertib (BAY189344, NSC800525), ceralasertib (AZD6738, NSC777638), TAK-243 (NSC785004), alisertib (NSC759677), etoposide (NSC141540), topotecan (NSC609699), eribulin (NSC707389), gemcitabine (NSC613327), carboplatin (NSC241240), cisplatin (NSC119875), and SN-38 (NSC673596) were obtained from the National Cancer Institute (NCI) Developmental Therapeutics Program Chemical Repository (32). The FDA-approved anticancer drug set is available from the Developmental Therapeutics Program at https://dtp.cancer.gov/organization/dscb/obtaining/available plates.htm. […] The stock solutions were prepared in dimethyl sulfoxide (DMSO, Sigma-Aldrich, St. Louis, MO, cat. D2650), except for the platinum compounds which were prepared in saline (Quality Biological, Gaithersburg, MD, cat. 114-055-101), at 800-fold the tested concentration and stored at -70 degrees C prior to their use. All drugs and investigational agents were tested over a range starting from a high concentration at or near the clinical Cmax and decreasing in half-log increments. If the clinical Cmax for an agent had not been determined, the highest concentration tested was 10 microM (Table 1).
Cell Culture. All cells were maintained in an incubator at 37 degrees C and 5% CO2 with 95% humidity. The PDC lines were cultured according to standard operating procedures established by the NCI PDMR (https://pdmr.cancer.gov). Briefly, all PDCs were thawed and cultured in Matrigel-coated flasks prepared with a working solution of 1X Ham's F-12 nutrient mix, without supplementation (Invitrogen, Waltham, MA, cat. 11765054), 100 U/mL penicillin-streptomycin (Invitrogen, cat. 15140122), and 2.5% Matrigel (Corning Inc., Corning, NY, cat. 354248) for the first three passages. All PDCs were cultured in complete DMEM/F-12 media containing advanced DMEM/F-12 (Invitrogen, cat. 12634028), 4.9% defined fetal bovine serum, heat inactivated (HyClone Laboratories Inc., Logan, UT, cat. SH30070.03HI), 389 ng/mL hydrocortisone (Sigma-Aldrich, cat. H4001), 9.7 ng/mL human EGF recombinant protein (Invitrogen, cat. PHG0313), 23.4 microg/mL adenine (Sigma-Aldrich, cat. A2786), 97.3 U/mL penicillin-streptomycin (Invitrogen, cat. 15140122), 1.9 mM L-glutamine (Invitrogen, cat. 25030081), and 9.7 microM Y-27632 dihydrochloride (Tocris Bioscience, Bristol, United Kingdom, cat. 1254). The PDCs were cultured in complete DMEM/F12 media without 10 microM Y-27632 dihydrochloride for at least two passages prior to the screen. The established cell lines NCI-H1341 and […] were cultured in DMEM/F-12, HEPES (Invitrogen, cat. 11330032), 5% defined fetal bovine serum (HyClone Laboratories Inc., cat. SH30070.03), ITS premix universal culture supplement [insulin (5 microg/mL), transferrin (5 microg/mL), and selenious acid (5 ng/mL)] […]

pIC50: −log10 of the molar value. Values joined by “and” are separate entries in the source; they are usually repeats but may differ in a detail not shown here. Equal values may be shown once. Some results are limits rather than exact numbers.

As usually defined, the viability, T/C is the ratio of treated to control. As usually defined, the pIC50 is the IC50 on a negative log10 scale, so that one unit is a factor of ten. `Cn1ncnc1C1c2n[nH]c(=O)c3cc(F)cc(c23)NC1c1ccc(F)cc1` (configuration not stated): the negative logarithm of the IC50 (pIC50) was under 7.00. Also, the viability, T/C (compound 0.000316 µM) is 92.2% and 98.6% and 103%. Also, for the setting “compound 0.001 µM”, the viability, T/C is 104% and 105% and 101%. Besides, for the setting “compound 0.00316 µM”, the viability, T/C is 113% and 105% and 109%. Moreover, the viability, T/C (compound 0.01 µM) was 106% and 105% and 103%. The viability, T/C (compound 0.0316 µM) was 97.6% and 104% and 106%. Under “compound 0.1 µM”, the viability, T/C was 102% and 96.8% and 95.4%.

With `NS(=O)(=O)OCC1CC(n2ccc3c(NC4CCc5ccccc54)ncnc32)CC1O` (configuration not stated), the pIC50 is 5.73 and 5.82 and 5.96. The viability, T/C (compound 0.0316 µM) was 105% (2×) and 111%. For the same compound, the viability, T/C (compound 0.1 µM) is 91.6% and 81.1% and 96.8%. Also, the viability, T/C (compound 0.316 µM) is 96.3% and 80.9% and 75.9%. Besides, the viability, T/C (compound 1 µM) is 61.7% and 50.2% and 53.7%. Besides, for the setting “compound 3.16 µM”, the viability, T/C was 41% and 40.2% and 31.6%. In addition, the viability, T/C (compound 10 µM) is 36.6% and 31.7% and 31.8%.

Turning to `Nc1ccccc1NC(=O)c1ccc(CNC(=O)OCc2cccnc2)cc1`, the pIC50 is 5.79 and 5.89 and 5.92. Moreover, the viability, T/C (compound 0.0316 µM) was 110% and 93.1% and 105%. The viability, T/C (compound 0.1 µM) is 94.4% and 93.7% and 104%. Moreover, the viability, T/C (compound 0.316 µM) was 90.6% and 82% and 81.3%. Moreover, the viability, T/C (compound 1 µM) was 65.3% and 61.6% and 56.3%. The viability, T/C (compound 3.16 µM) is 29.8% and 16.3% and 22.4%. Moreover, where the note is “compound 10 µM”, the viability, T/C is 1.27% and 0.71% and 1.79%.

As to `Nc1ccn(C2OC(CO)C(O)C2(F)F)c(=O)n1` (configuration not stated), the viability, T/C was 47.9% and 47.2% and 52.3% (compound 0.0316 µM); 58.5% and 48.9% and 52.8% (compound 0.1 µM); 58.5% and 51% and 51.5% (compound 0.316 µM); 52.4% and 51.2% and 50.9% (compound 1 µM); 50.7% and 50.1% and 51.2% (compound 3.16 µM); 56.5% and 43.3% and 49% (compound 10 µM).

For `Nc1ncn(C2CC(O)C(CO)O2)c(=O)n1` (configuration not stated), the negative logarithm of the IC50 (pIC50) is under 6.00. Also, for the setting “compound 0.00316 µM”, the viability, T/C was 107% and 102% and 97.1%. Also, the viability, T/C (compound 0.01 µM) is 104% (2×) and 97.5%. Under “compound 0.0316 µM”, the viability, T/C was 117% and 101% and 103%. The viability, T/C (compound 0.1 µM) was 102% and 105% and 98.2%. For the setting “compound 0.316 µM”, the viability, T/C was 101% and 92.1% and 94.3%. Further, the viability, T/C (compound 1 µM) was 89.7% and 90.5% and 96.5%.

As to `Nc1ncn(C2CC(O)C(CO)S2)c(=O)n1` (configuration not stated), the pIC50 was under 6.52. The viability, T/C (compound 0.000949 µM) is 112% and 105% and 101%. Also, the viability, T/C (compound 0.003 µM) is 100% and 106% and 101%. In addition, the viability, T/C (compound 0.00949 µM) is 116% and 96% and 105%. Moreover, the viability, T/C (compound 0.03 µM) was 102% and 97.7% and 101%. For the same compound, the viability, T/C (compound 0.0949 µM) is 102% and 97.4% and 104%. Also, where the note is “compound 0.3 µM”, the viability, T/C was 98.1% and 90.8% and 94.5%.

In the case of `O=C(C=Cc1cccc(S(=O)(=O)Nc2ccccc2)c1)NO`, the pIC50 was 5.54 and 5.76 and 5.65. For the same compound, the viability, T/C (compound 0.0316 µM) was 95.1% and 99% and 103%. The viability, T/C (compound 0.1 µM) was 109% and 96.7% and 106%. The viability, T/C (compound 0.316 µM) was 91.4% and 95.8% and 88.1%. The viability, T/C (compound 1 µM) is 73.5% and 71.2% and 72.4%. For the same compound, the viability, T/C (compound 3.16 µM) is 49.8% and 26% and 40.5%. In addition, the viability, T/C (compound 10 µM) was 1.74% and 0.77% and 1.35%.

As to `O=C(C=Cn1cnc(-c2cc(C(F)(F)F)cc(C(F)(F)F)c2)n1)NNc1cnccn1`, the negative logarithm of the IC50 (pIC50) was 6.46 and 6.75 and 6.61. Moreover, the viability, T/C (compound 0.00949 µM) was 91.2% and 92.5% and 96.9%. For the same compound, where the note is “compound 0.03 µM”, the viability, T/C is 95.9% and 92.7% and 88.6%. In addition, for the setting “compound 0.0949 µM”, the viability, T/C is 90.4% and 70.7% and 77.7%. Moreover, under “compound 0.3 µM”, the viability, T/C is 54.4% and 32.3% and 45.1%. Moreover, the viability, T/C (compound 0.949 µM) was 18.8% and 10% and 17.4%. For the same compound, under “compound 3 µM”, the viability, T/C was 15.7% and 10.8% and 15.9%.

On to `O=C(c1cc(Cc2n[nH]c(=O)c3ccccc23)ccc1F)N1CCN(C(=O)C2CC2)CC1`, for which the pIC50 was under 5.00. Further, under “compound 0.0316 µM”, the viability, T/C is 104% and 103% and 102%. The viability, T/C (compound 0.1 µM) is 108% and 102% and 106%. Where the note is “compound 0.316 µM”, the viability, T/C is 109% and 98.8% and 95%. In addition, the viability, T/C (compound 1 µM) is 104% and 103% and 88.4%. Further, where the note is “compound 3.16 µM”, the viability, T/C is 90.8% and 91.2% and 88.4%. Further, the viability, T/C (compound 10 µM) was 82.5% and 75.1% and 82.1%.
